Assay results published in patent US20060024234A1, “Protein markers for pharmaceuticals and related toxicity” (LARGE SCALE PROTEOMICS CORPORATION, A Division of Large …, priority 2000, published 2006).

Experiments:
[1] = Weight gain of treated rats; type: in vivo, rat; details: high doses
rat liver proteins [2] = biological target: T1, rat liver proteins (Rattus norvegicus, UniProt P31044); assay: Proteome analysis (2-D gel electrophoresis) of liver of rats fed antilipemic drugs at low and high dose for 7 days (Examples 1-3); type: in vivo; details: rat liver
T1 construct: The 2DGE protein pattern of rat liver illustrates over 1000 Coomassie Blue stained protein spots; from tissue; host or cells: liver (left apical lobe) of drug-fed F344 rats
T1 sequence (P31044 1-187): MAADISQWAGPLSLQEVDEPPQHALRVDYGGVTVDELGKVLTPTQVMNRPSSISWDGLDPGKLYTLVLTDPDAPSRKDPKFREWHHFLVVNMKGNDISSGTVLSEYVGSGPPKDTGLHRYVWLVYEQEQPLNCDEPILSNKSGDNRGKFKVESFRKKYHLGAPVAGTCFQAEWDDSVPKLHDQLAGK
Experimental: (§1) The animals were guillotined after CO2 asphyxiation on the day following the last treatment. Liver samples (150 mg of the left apical lobe) were removed and flash frozen in liquid nitrogen and kept at −80° C. until analysis.
(§2) The homogenates were centrifuged at 420,000×g at 22° C. for 30 min. […] The supernatant was removed, divided into four aliquots and stored at −80° C. until analysis.
(§3) An Angelique™ computer-controlled gradient-casting system (Large Scale Biology Corporation, Rockville, Md.) was used to prepare the second-dimension SDS slab gels. […] Second-dimensional slab gels were run overnight at 160 V in cooled DALT tanks (10° C.) with buffer circulation and were taken out when the tracking dye reached the bottom of the gel. Following SDS electrophoresis, the slab gels were fixed overnight in 1.5 liters/10 gels of 50% ethanol/3% phosphoric acid and then washed three times for 30 min in 1.5 liters/10 gels of cold DI water. They were transferred to 1.5 liters/10 gels of 34% methanol/17% ammonium sulfate/3% phosphoric acid for one hour, and after the addition of one gram powdered Coomassie Blue G-250 the gels were stained for three days to achieve equilibrium intensity.
(§4) Groupwise statistical comparisons were made to search for treatment-related protein abundance changes.
(§5) For these experiments, only pharmaceutical grade compounds were used with the trademark identifying the source. […] In each experiment, the low dose was equivalent to the daily human therapeutic dose.

rat liver proteins [3] = biological target: T2, rat liver proteins (Rattus norvegicus, UniProt P05545); assay: as above; type: in vivo; details: rat liver, high doses
T2 construct: The 2DGE protein pattern of rat liver illustrates over 1000 Coomassie Blue stained protein spots; from tissue; host or cells: liver (left apical lobe) of drug-fed F344 rats
T2 sequence (P05545 21-416): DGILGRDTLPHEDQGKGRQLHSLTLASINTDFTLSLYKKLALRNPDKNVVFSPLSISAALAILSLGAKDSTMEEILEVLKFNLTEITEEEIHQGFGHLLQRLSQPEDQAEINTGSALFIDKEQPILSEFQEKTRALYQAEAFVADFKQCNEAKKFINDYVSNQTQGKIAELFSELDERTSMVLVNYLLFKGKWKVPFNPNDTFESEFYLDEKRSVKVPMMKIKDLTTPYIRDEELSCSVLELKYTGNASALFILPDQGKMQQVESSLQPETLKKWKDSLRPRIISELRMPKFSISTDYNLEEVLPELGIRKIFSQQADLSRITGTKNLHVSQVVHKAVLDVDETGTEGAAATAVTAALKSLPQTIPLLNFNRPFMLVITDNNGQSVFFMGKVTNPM
Experimental: as §1, §2, §3, §4, §5

rat liver proteins [4] = biological target: T3, rat liver proteins (Rattus norvegicus, UniProt P55260); assay: as above; type: in vivo; details: rat liver
T3 construct: The 2DGE protein pattern of rat liver illustrates over 1000 Coomassie Blue stained protein spots; from tissue; host or cells: liver (left apical lobe) of drug-fed F344 rats
T3 sequence (P55260 1-319): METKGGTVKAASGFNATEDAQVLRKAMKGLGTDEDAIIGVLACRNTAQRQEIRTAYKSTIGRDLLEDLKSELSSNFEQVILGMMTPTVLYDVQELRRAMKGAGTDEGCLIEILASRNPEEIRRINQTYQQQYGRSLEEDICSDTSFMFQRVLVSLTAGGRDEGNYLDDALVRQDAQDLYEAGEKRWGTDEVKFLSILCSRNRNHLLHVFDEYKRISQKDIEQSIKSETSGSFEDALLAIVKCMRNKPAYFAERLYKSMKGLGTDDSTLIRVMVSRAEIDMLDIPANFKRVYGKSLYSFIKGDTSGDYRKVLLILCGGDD
Experimental: as §1, §2, §3, §4, §5

rat liver proteins [5] = assay: as above; type: in vivo
Experimental: as §1, §2, §3, §4, §5

[6] = rat liver, 1500 ppm in feed for 7 days

For `CC[C@H](C)C(=O)O[C@H]1C[C@@H](C)C=C2C=C[C@H](C)[C@H](CC[C@@H]3C[C@@H](O)CC(=O)O3)[C@H]21` [Mevacor ®, lovastatin], the weight gain [1] was “decrease”, the “23 kD morphine binding protein abundance” value (rat liver proteins [2]) was “increased” and the “serine protease inhibitor 2 (SPI-2) abundance” value (rat liver proteins [3]) was “decrease”. For the same molecule, the “annexin IV abundance” value (rat liver proteins [4]) was “dose-dependent increase”, the “protein abundance changes in liver at low dose” value (rat liver proteins [5]; 16 ppm in feed for 7 days) was “not of statistical significance” and the “protein kinase C inhibitor abundance” value (rat liver proteins [5]; rat liver) was “increased”. For the same molecule, the “number of hepatic proteins with altered abundance, p<0.001” value (rat liver proteins [5]; [6]) was 32, the “number of liver proteins with altered abundance, p<0.0001” value (rat liver proteins [5]; [6]) was 8 and the “number of liver proteins with altered abundance, p<0.005” value (rat liver proteins [5]; [6]) was 64. The “number of lost liver proteins” value (rat liver proteins [5]; [6]) was “one”, the “number of new liver proteins” value (rat liver proteins [5]; [6]) was 1 and the “number of liver proteins with altered abundance (total)” value (rat liver proteins [5]; rat liver, two-tailed Student's t-test, 1500 ppm in feed for 7 days) was 66.
